Measured values: US12180207B2 (ARRAY BIOPHARMA INC., priority 2018, dated 2024)

Columns and labels:
[1] = molecular target: HEK-293 cells transfected with dox-inducible human wild type FGFR1 (Homo sapiens (Human), UniProt P11362); assay: FGFR1 pERK cell assay; type: cell-based; conditions: HEK-293 dox-inducible FGFR1, 1 hour compound, 100 ng/ml FGF-acidic; maximum concentration 5 μM
Procedure: (§1) FGFR1 pERK Cell Assay: • HEK-293 cells transfected with doxycycline(dox)-inducible human wild type FGFR1 (SEQ ID NO: 1) were plated in a collagen or poly-D-lysine coated 96 well flat bottom plates at 4×10^5 cells/well in complete Dulbecco's Modified Eagle Medium (DMEM) containing 10% FBS and 1 μg/ml doxycycline and allowed to attach for 24 h at 37° C., 5% CO2. Cells were treated with compound using 1:3 serial dilutions with a maximum final concentration of 5 μM. Compound was incubated on cells for 1 hour at 37° C., 5% CO2. Cells were then stimulated with a final concentration of 100 ng/ml human FGF-acidic (R&D Systems Cat number 232-FA/CF) for 5 minutes at 37° C., 5% CO2. Medium was removed, and cells were lysed with lysis buffer containing phosphatase and protease inhibitors. Phospho ERK1/2 was measured using the Meso Scale Discovery sandwich assay (Meso Scale Discovery cat. no. K151DWD). The assay captures phospho ERK1/2 and detects with a sulfo-tagged total ERK1/2 antibody. The chemiluminescent signal was read on the Sector Imager Plate reader. 100 POC was determined using no test compound and 0 POC was determined using a control compound. The POC values were fit to a 4-parameter logistic curve as a function of the concentration of the compound, and the IC50 value is the point where the curve crosses 50 POC.

[2] = molecular target: T1, HEK-293 cells transfected with dox-inducible human wild type FGFR3 (Homo sapiens (Human), UniProt P22607); assay: FGFR3 pFGFR cell assay (ELISA); type: cell-based; conditions: HEK-293 dox-inducible FGFR3, 1 hour compound, 100 ng/ml FGF-acidic
T1 sequence (P22607 23-806): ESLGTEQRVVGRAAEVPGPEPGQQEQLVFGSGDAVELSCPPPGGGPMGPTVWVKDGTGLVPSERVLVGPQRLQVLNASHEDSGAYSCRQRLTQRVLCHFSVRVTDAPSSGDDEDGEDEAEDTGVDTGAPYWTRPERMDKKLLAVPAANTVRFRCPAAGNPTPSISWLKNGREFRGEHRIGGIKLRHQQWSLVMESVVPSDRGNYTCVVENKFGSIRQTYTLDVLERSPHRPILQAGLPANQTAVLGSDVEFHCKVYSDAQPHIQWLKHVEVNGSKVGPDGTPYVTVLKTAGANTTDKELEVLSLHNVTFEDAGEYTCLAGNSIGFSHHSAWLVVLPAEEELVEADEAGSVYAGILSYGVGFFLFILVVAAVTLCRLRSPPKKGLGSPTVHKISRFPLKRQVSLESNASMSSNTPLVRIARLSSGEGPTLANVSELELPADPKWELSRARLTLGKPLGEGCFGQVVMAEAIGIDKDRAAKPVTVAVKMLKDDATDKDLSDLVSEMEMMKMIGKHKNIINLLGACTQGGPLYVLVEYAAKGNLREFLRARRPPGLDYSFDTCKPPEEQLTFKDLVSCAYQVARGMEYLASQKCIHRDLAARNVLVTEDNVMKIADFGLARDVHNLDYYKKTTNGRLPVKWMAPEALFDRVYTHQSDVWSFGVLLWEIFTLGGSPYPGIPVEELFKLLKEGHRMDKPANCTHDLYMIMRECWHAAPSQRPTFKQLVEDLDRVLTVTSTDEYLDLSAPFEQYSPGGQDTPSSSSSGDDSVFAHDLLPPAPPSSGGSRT
Procedure: FGFR3 pFGFR Cell Assay: • HEK-293 cells transfected with dox-inducible human wild type FGFR3 (SEQ ID NO: 5) were plated in a collagen or poly-D-lysine coated 96 well flat bottom plates at 4×10^5 cells/well in complete DMEM medium containing 10% FBS and 1 μg/ml doxycycline and allowed to attach for 24 h at 37° C., 5% CO2. Cells were treated with compound using 1:3 serial dilutions with a top final concentration of 5 μM. Compound was incubated on cells for 1 hour at 37° C., 5% CO2. Cells were then stimulated with a final concentration of 100 ng/ml human FGF-acidic for 5 minutes at 37° C., 5% CO2. Medium was removed and cells were lysed with lysis buffer containing phosphatase and protease inhibitors. Phospho FGFR3 was measured by ELISA (R&D Systems cat DYC2719). The ELISA captures total FGFR3 and detects total phospho tyrosine. Optical density was measured for each well using a Versamax reader at a wavelength of 450 nm. 100 POC was determined using no test compounds and 0 POC was determined using a control compound. The POC values were fit to a 4-parameter logistic curve as a function of the concentration of the compound, and the IC50 value is the point where the curve crosses 50 POC.

[3] = molecular target: T1, HEK-293 cells transfected with dox-inducible human wild type FGFR3; assay: FGFR3 pERK cell assay; type: cell-based; conditions: HEK-293 dox-inducible FGFR3, 1 hour compound, 100 ng/ml FGF-acidic; maximum concentration 5 μM
Procedure: as §1, with “FGFR3 pERK” for “FGFR1 pERK”, “with dox-inducible” for “with doxycycline(dox)-inducible”, “type FGFR3” for “type FGFR1”, “NO: 5)” for “NO: 1)”, “complete DMEM medium” for “complete Dulbecco's Modified Eagle Medium (DMEM)”, “test compounds” for “test compound”

[4] = molecular target: recombinant human FGFR1 catalytic domain (amino acids 308-731) (Homo sapiens (Human), UniProt P11362); assay: FGFR1 enzyme activity assay (LanthaScreen TR-FRET); type: biochemical; conditions: 20 min incubation at 22° C., average of multiple determinations if made, read-out: FGFR1 Enz FRET IC50
recombinant human FGFR1 catalytic domain (amino acids 308-731), sequence (P11362 other isoform, or with tags, fused parts or gaps): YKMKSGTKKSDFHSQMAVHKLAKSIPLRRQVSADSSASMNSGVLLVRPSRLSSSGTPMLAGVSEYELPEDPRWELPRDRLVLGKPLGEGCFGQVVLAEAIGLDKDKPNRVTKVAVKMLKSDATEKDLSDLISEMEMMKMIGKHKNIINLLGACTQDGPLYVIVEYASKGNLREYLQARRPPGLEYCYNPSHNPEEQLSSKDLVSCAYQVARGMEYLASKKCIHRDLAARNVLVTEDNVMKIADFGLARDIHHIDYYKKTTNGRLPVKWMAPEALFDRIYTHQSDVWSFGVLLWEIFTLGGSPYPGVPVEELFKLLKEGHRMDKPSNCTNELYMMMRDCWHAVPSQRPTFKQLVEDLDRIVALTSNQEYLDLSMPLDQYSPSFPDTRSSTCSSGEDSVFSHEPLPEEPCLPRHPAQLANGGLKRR
Method in brief: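 His-tagged FGFR1 kinase domain with 100 nM Alexa Fluor 647-poly-GT peptide and ATP in pH 7.5 HEPES/MgCl2 buffer with 2% DMSO, 20 min at 22 °C. Quenched with EDTA plus 2 nM Eu-PY20 antibody and read after 60 min. IC50 comes from a 4-parameter fit of percent of control.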

[5] = molecular target: FGFR1 (SEQ ID NO: 1, amino acids 458-765) (Homo sapiens (Human), UniProt P11362); assay: LC/MS FGFR1 kobs assay (covalent protein modification); type: binding; conditions: 500 nM FGFR1, 3 μM compound
FGFR1 (SEQ ID NO: 1, amino acids 458-765), sequence (P11362 458-765): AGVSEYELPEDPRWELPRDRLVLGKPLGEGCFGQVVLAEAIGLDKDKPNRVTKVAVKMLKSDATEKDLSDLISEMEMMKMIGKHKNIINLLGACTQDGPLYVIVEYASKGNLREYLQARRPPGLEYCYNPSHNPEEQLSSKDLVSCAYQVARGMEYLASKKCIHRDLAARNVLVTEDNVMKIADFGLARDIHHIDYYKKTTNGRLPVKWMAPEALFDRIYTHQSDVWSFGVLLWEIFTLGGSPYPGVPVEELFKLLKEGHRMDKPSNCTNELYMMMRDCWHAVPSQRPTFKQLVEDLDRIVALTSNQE
Method in brief: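 Covalent labeling of FGFR1 kinase domain (aa 458-765) tracked over time by intact-protein LC/MS after formic acid quench. kobs derived by fitting DMSO-normalized percent unmodified FGFR1 to an exponential decay model.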

[6] = molecular target: FGFR3 (SEQ ID NO: 5, amino acids 449-759) (Homo sapiens (Human), UniProt P22607); assay: LC/MS FGFR3 kobs assay (covalent protein modification); type: binding; conditions: 500 nM FGFR3, 3 μM compound
FGFR3 (SEQ ID NO: 5, amino acids 449-759), sequence (P22607 449-759): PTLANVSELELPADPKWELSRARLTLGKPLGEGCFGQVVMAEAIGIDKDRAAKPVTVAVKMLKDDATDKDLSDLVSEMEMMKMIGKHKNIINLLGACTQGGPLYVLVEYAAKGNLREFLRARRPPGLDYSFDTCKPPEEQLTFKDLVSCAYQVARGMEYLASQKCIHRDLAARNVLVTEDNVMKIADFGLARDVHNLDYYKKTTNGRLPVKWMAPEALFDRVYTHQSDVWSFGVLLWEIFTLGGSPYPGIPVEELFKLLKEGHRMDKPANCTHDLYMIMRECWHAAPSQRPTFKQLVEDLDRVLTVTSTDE
Method in brief: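 Timed reactions were stopped with 0.4% formic acid, and covalent adduct formation was measured by LC/MS on a Q-TOF with deconvolution of protein masses. Modified signal was normalized to DMSO-control unmodified protein at each time point; percent unmodified protein was fit to exponential decay to give kobs.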

[7] = molecular target: dephosphorylated FGFR1 (SEQ ID NO: 1, amino acids 458 to 765) (Homo sapiens (Human), UniProt P11362); assay: FGFR enzyme binding assay (HTRF tracer displacement), FGFR1; conditions: 5 nM dephosphorylated FGFR1, average of multiple determinations if made
dephosphorylated FGFR1 (SEQ ID NO: 1, amino acids 458 to 765), sequence (P11362 458-765): as the sequence (P11362 458-765) above
Method in brief: (§2)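 Compounds were tested for displacement of a tracer from human FGFR kinase in a time-resolved FRET binding format. After 60 minutes at 22° C, signal was read at two wavelengths and converted to percent of control, normalised between untreated wells and 1 μM reference inhibitor.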

[8] = molecular target: phosphorylated FGFR3 (SEQ ID NO: 5, amino acids 449 to 759) (Homo sapiens (Human), UniProt P22607); assay: FGFR enzyme binding assay (HTRF tracer displacement), FGFR3; conditions: 5 nM phosphorylated FGFR3, average of multiple determinations if made
phosphorylated FGFR3 (SEQ ID NO: 5, amino acids 449 to 759), sequence (P22607 449-759): as the sequence (P22607 449-759) above
Method in brief: as §2

[9] = molecular target: recombinant human FGFR2 cytoplasmic domain (amino acids 403-822) (Homo sapiens (Human), UniProt P21802); assay: FGFR2 enzyme activity assay (LanthaScreen TR-FRET); type: biochemical; conditions: 15 μM ATP, 20 min incubation at 22° C., average of multiple determinations if made, read-out: FGFR2 Enz FRET IC50
recombinant human FGFR2 cytoplasmic domain (amino acids 403-822), sequence (P21802 402-821): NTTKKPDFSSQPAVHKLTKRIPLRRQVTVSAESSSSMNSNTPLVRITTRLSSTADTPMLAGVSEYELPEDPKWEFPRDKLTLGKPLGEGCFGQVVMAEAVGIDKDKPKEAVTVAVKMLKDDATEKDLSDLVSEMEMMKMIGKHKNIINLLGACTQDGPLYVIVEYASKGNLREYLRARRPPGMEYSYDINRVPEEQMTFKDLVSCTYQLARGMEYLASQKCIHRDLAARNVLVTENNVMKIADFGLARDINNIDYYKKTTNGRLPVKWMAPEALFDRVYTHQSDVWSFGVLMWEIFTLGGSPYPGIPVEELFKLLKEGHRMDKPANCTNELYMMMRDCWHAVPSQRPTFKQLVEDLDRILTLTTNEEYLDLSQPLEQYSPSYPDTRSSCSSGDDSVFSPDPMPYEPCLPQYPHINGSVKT
Method in brief: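 His-tagged FGFR2 cytoplasmic domain ([…]) with 100 nM Alexa Fluor 647-poly-GT peptide and 15 μM ATP in HEPES/MgCl2/Triton buffer, pH 7.5, 2% DMSO, 20 min at 22 °C. EDTA-quenched, Eu-PY20 antibody added, TR-FRET read after 60 min.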

[10] = molecular target: recombinant human FGFR3 (amino acids R397-T806) (Homo sapiens (Human), UniProt P22607); assay: FGFR3 enzyme activity assay (LanthaScreen TR-FRET); type: biochemical; conditions: 25 μM ATP, 10 min incubation at 22° C., average of multiple determinations if made, read-out: FGFR3 Enz FRET IC50
recombinant human FGFR3 (amino acids R397-T806), sequence (P22607 397-806): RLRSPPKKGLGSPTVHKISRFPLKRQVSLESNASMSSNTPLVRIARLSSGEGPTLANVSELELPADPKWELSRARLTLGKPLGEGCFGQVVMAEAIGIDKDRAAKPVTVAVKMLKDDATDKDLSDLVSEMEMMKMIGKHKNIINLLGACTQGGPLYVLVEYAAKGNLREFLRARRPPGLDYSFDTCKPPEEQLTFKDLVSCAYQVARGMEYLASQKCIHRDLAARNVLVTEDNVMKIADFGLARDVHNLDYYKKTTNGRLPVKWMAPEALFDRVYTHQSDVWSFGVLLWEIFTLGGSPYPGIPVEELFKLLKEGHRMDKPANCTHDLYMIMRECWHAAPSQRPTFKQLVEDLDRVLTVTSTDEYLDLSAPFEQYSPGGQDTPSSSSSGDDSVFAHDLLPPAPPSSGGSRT
Method in brief: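 GST-HIS6-tagged human FGFR3 (R397-T806) was reacted with 100 nM Alexa Fluor 647-Poly-GT substrate and 25 μM ATP plus compound in HEPES/MgCl2/Triton buffer, pH 7.5, 2% DMSO, for 10 min at 22 °C.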

HEK-293 cells transfected with dox-inducible human wild type FGFR1, sequence (P11362 22-822): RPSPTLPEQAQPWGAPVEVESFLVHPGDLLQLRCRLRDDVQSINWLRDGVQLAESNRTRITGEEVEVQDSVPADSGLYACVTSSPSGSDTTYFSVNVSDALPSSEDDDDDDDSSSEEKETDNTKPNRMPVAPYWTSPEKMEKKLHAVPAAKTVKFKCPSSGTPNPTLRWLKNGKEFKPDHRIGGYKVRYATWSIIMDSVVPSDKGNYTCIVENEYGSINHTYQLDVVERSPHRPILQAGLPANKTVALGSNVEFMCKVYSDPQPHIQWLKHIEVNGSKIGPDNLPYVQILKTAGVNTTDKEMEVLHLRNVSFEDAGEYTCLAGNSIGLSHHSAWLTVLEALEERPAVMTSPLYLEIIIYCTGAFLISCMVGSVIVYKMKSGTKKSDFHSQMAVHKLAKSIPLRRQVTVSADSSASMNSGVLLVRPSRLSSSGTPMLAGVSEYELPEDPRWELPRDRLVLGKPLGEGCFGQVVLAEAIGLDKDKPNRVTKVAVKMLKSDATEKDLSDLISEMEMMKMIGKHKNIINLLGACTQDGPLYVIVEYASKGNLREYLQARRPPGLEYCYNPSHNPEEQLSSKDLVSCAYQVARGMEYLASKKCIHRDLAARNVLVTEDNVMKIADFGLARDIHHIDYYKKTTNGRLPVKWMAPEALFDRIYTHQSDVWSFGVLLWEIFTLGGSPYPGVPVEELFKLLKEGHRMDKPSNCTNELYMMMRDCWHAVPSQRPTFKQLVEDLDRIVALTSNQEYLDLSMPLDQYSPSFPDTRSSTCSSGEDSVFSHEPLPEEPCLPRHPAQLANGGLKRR

IC50 [2] [nM]	IC50 [4] [nM]	FGFR1 Enz kobs [5] [min⁻¹]	FGFR3 Enz kobs [6] [min⁻¹]	IC50 [7] [nM]	IC50 [8] [nM]	IC50 [9] [nM]	IC50 [10] [nM]	Structure (SMILES)	also measured
								C=CS(=O)(=O)N[C@H]1C[C@@H](C(=O)N2CCC(n3cc(-c4cc(OC)c5c(C#N)cnn5c4)cn3)CC2)C1 [Example 193, N-((1s,3s)-3-(4-(4-(3-cyano-4-methoxypyrazolo[1,5-a]pyridin-6-yl)-1H-pyrazol-1-yl)piperidine-1-carbonyl)cyclobutyl) ethenesulfonamide]	IC50 [1]: 328 nM
351								COc1cc(-c2cnn(C3CN(CC4CN(C(=O)/C=C/CN(C)C)C4)C3)c2)cn2ncc(C#N)c12 [Example 148]	
								C=CS(=O)(=O)N[C@H]1C[C@H](C(=O)N2CCC(n3cc(-c4cc(OC)c5c(C#N)cnn5c4)cn3)CC2)C1 [Example 194, N-((1r,3r)-3-(4-(4-(3-cyano-4-methoxypyrazolo[1,5-a]pyridin-6-yl)-1H-pyrazol-1-yl)piperidine-1-carbonyl)cyclobutyl) ethenesulfonamide]	IC50 [1]: 401 nM
								C=C(F)C(=O)N1CC(C(=O)N2CCC(n3cc(-c4cc(OC)c5c(C#N)cnn5c4)cn3)CC2)C1 [Example 140, 6-(1-(1-(1-(2-fluoroacryloyl)azet-idine-3-carbonyl)piperidin-4-yl)-1H-pyrazol-4-yl)-4-methoxypyrazolo [1,5-a]pyridine-3-carbonitrile]	IC50 [1]: 206 nM; IC50 [3]: 105 nM
74								C=CS(=O)(=O)N[C@H]1CC[C@H](C(=O)N2CCC(n3cc(-c4cc(OC)c5c(C#N)cnn5c4)cn3)CC2)CC1 [Example 187, N-((1r,4r)-4-(4-(4-(3-cyano-4-methoxypyrazolo[1,5-a]pyridin-6-yl)-1H-pyrazol-1-yl)piperidine-1-carbonyl)cyclohexyl) ethenesulfonamide]	
26								C=CS(=O)(=O)Nc1ccc(C(=O)N2CCC(n3cc(-c4cc(OC)c5c(C#N)cnn5c4)cn3)CC2)cc1 [Example 196, N-(4-(4-(4-(3-cyano-4-methoxypyrazolo[1,5-a]pyridin-6-yl)-1H-pyrazol-1-yl)piperidine-1-carbonyl)phenyl)ethenesulfonamide]	
20								C=CC(=O)Nc1ccc(S(=O)(=O)N2CCC(n3cc(-c4cc(OC)c5c(C#N)cnn5c4)cn3)CC2)cc1 [Example 49, N-(4-((4-(4-(3-cyano-4-methoxypyrazolo[1,5-a]pyridin-6-yl)-1H-pyrazol-1-yl)piperidin-1-yl)sulfonyl)phenyl)acryl-amide (2,2,2-trifluoroacetate)]	
2320								COc1cc(-c2cnn(C3CN(C(=O)C4CN(C(=O)/C=C/CN(C)C)C4)C3)c2)cn2ncc(C#N)c12 [Example 150]	
	39	0.00081	0.002	120	22	14	13	C=CC(=O)N1CCC(C(=O)N2CC(n3cc(-c4cc(OC)c5c(C#N)cnn5c4)cn3)C2)CC1 [Example 75, 6-(1-(1-(1-acryloylpiperidine-4-carbonyl)azetidin-3-yl)-1H-pyrazol-4-yl)-4-methoxypyrazolo[1,5-a]pyridine-3-carbonitrile]	
	12	0.0006	0.00352	56	8	4	6	C=CC(=O)N1CCC(C(=O)N2CCN(c3ccc(-c4cc(OC)c5c(C#N)cnn5c4)cn3)CC2)CC1 [Example 109, 6-(6-(4-(1-acryloylpiperidine-4-carbonyl)piperazin-1-yl)pyridin-3-yl)-4-methoxypyrazolo[1,5-a]pyridine-3-carbonitrile]	
	119	0.00274	0.02206	2930	160	63	264	C=CC(=O)N1CC(C(=O)N2CCN(c3ncc(-c4cc(OC)c5c(C#N)cnn5c4)cn3)CC2)C1 [Example 133, 6-(2-(4-(1-acryloylazetidine-3-carbonyl)piperazin-1-yl)pyrimidin-5-yl)-4-methoxypyrazolo[1,5-a]pyridine-3-carbonitrile]	
	39	0.00121	0.00455	229	33	6	4	COc1cc(-c2cnn(C3CN(CC4CN(C(=O)/C=C/CN5CCCCC5)C4)C3)c2)cn2ncc(C#N)c12 [Example 149, (E)-4-methoxy-6-(1-(1-((1-(4-(piperidin-1-yl)but-2-enoyl)azetidin-3-yl)methyl)azetidin-3-yl)-1H-pyrazol-4-yl)pyrazolo[1,5-a]pyridine-3-carbonitrile]	
